What all share (assay type): functional
Assay [1] concerns Staphylococcus aureus. The assay is described as follows: Antibacterial activity of compound was measured against Staphylococcus aureus (MR) A20699 organism.
Assay [2] deals with Staphylococcus aureus. The assay is described as follows: Antibacterial activity of compound was measured against Staphylococcus aureus (MR) CEF1198 organism.
The subject of assay [3] is Staphylococcus aureus. Nature of the assay: Antibacterial activity of compound was measured against Staphylococcus aureus A9537 organism.
For a further assay, the system named is Escherichia coli. The assay is described as follows: Antibacterial activity of compound was measured against Escherichia coli A15119 organism.
For the next assay, the system named is Klebsiella pneumoniae. The assay is described as follows: Antibacterial activity of compound was measured against Klebsiella pneumoniae A9432 organism.

In brackets after ≈: the same amount, converted by molar mass.

The term MIC denotes the lowest concentration that inhibits growth of the organism. Low readings indicate greater potency, high ones weaker potency. Turning to `C[S+]([O-])/C=C/C1=C(C(=O)O)N2C(=O)[C@@H](NC(=O)Cc3cccs3)[C@H]2SC1` (some centres undefined), the MIC against Staphylococcus aureus [1] worked out at 16 µg/mL (≈ 38.8 µM); against Staphylococcus aureus [2], 4 µg/mL (≈ 9.7 µM); in the assay on Staphylococcus aureus [3] it was 0.03 µg/mL (≈ 0.0727 µM); against Escherichia coli, 1 µg/mL (≈ 2.42 µM); with Klebsiella pneumoniae it was 0.5 µg/mL (≈ 1.21 µM).
Consider `CS(=O)(=O)/C=C/C1=C(C(=O)O)N2C(=O)[C@@H](NC(=O)Cc3cccs3)[C@H]2SC1`, for which the MIC against Staphylococcus aureus [1] is 4 µg/mL (≈ 9.33 µM); in the assay on Staphylococcus aureus [2], 0.5 µg/mL (≈ 1.17 µM); against Staphylococcus aureus [3] it was 0.06 µg/mL (≈ 0.14 µM); in the assay with Escherichia coli, 0.5 µg/mL (≈ 1.17 µM); in the assay on Klebsiella pneumoniae, 0.5 µg/mL (≈ 1.17 µM).
Take `O=C(Cc1cccs1)N[C@@H]1C(=O)N2C(C(=O)O)=C(/C=C/[S+]([O-])c3ccc([N+](=O)[O-])cc3)CS[C@H]12` (some centres undefined): the MIC came out at 64 µg/mL (≈ 123 µM) in the assay with Staphylococcus aureus [1], 0.5 µg/mL (≈ 0.962 µM) in the assay with Staphylococcus aureus [3], 64 µg/mL (≈ 123 µM) with Escherichia coli and 64 µg/mL (≈ 123 µM) against Klebsiella pneumoniae.
For `Cc1ccc([S+]([O-])/C=C/C2=C(C(=O)O)N3C(=O)[C@@H](NC(=O)Cc4cccs4)[C@H]3SC2)cc1` (some centres undefined), the MIC in the assay with Staphylococcus aureus [1] turned out to be 16 µg/mL (≈ 32.7 µM); against Staphylococcus aureus [2], 8 µg/mL (≈ 16.4 µM); against Staphylococcus aureus [3], 0.25 µg/mL (≈ 0.512 µM); against Escherichia coli, 4 µg/mL (≈ 8.19 µM); in the assay with Klebsiella pneumoniae, 2 µg/mL (≈ 4.09 µM).
On the same counts, the results for `COc1cccc(OC)c1C(=O)N[C@@H]1C(=O)N2[C@@H]1SC(C)(C)[C@@H]2C(=O)O` [METHICILLIN] are 32 µg/mL (≈ 84.1 µM), 32 µg/mL (≈ 84.1 µM), 0.5 µg/mL (≈ 1.31 µM), over 128 µg/mL and over 128 µg/mL.

For the origin of these results see ChEMBL document CHEMBL1129116, “Synthesis of cephems bearing olefinic sulfoxide side chains as potential -lactamase inhibitors” (1996).
